{"source": "patent US20080031982A1", "about": "(Metaproteomics, LLC, priority 2006, published 2008)", "key": {"3T3-L1 adipocytes": {"tested_on": "3T3-L1 adipocytes", "assay": "Lipogenesis in 3T3-L1 adipocytes (Oil Red O / BODIPY)", "format": "cell-based, murine", "details": "for adipogenic / lipogenic response: relative to solvent and positive controls", "experimental": "Prior to experiments, cells were cultured in DMEM containing 10% FBS-HI added 50 units penicillin/ml and 50 μg streptomycin/ml, and maintained in log phase prior to experimental setup. Cells were grown in a 5% CO2 humidified incubator at 37° C. Components of the pre-confluent medium included (1) 10% FBS/DMEM containing 4.5 g glucose/L; (2) 50 U/ml penicillin; and (3) 50 μg/ml streptomycin. Growth medium was made by adding 50 ml of heat inactivated FBS and 5 ml of penicillin/streptomycin to 500 ml DMEM. This medium was stored at 4° C. Before use, the medium was warmed to 37° C. in a water bath.\n3T3-T1 cells were seeded at an initial density of 6×10^4 cells/cm^2 in 24-well plates. For two days, the cells were allowed grow to reach confluence. Following confluence, the cells were forced to differentiate into adipocytes by the addition of differentiation medium; this medium consisted of (1) 10% FBS/DMEM (high glucose); (2) 0.5 mM methylisobutylxanthine; (3) 0.5 μM dexamethasone and (4) 10 μg/ml insulin (MDI medium). After three days, the medium was changed to post-differentiation medium consisting of 10 μg/ml insulin in 10% FBS/DMEM.\nWhenever fresh media were added, fresh test material was also added.\nOil Red 0 Staining—Triglyceride content of D6/D7-differentiated 3T3-L1 cells was estimated with Oil Red 0 according to the method of Kasturi and Joshi [Kasturi, R. and Joshi, V. C. […] Monolayer cells were washed with PBS (phosphate buffered saline, Mediatech) and fixed with 10% formaldehyde for ten minutes. Fixed cells were stained with an Oil Red 0 working solution of three parts 0.6% Oil Red O/isopropanol stock solution and two parts water for one hour and the excess stain was washed once with water. The resulting stained oil droplets were extracted from the cells with isopropanol and quantified by spectrophotometric analysis at 540 nm (MEL312e BIO-KINETICS READER, Bio-Tek Instruments, Winooski, Vt.).\nBriefly, media were removed and cells were washed once with non-sterile PBS. A stock 1000× BODIPY/DMSO solution was made by dissolving 1 mg BODIPY in 1 ml DMSO (1,000 μg BODIPY/ml). […] One-hundred μl of this working solution (1 μg BODIPY) was added to each well of a 96-well microtiter plate. After 15 min on an orbital shaker (DS-500, VWR Scientific Products, South Plainfield, N.J.) at ambient temperature, the cells were washed with 100 μl PBS followed by the addition of 100 μl PBS for reading for spectrofluorometric determination of BODIPY incorporation into the cells.\nNonpolar lipid incorporation was represented relative to the nonpolar lipid accumulation of fully differentiated cells in the solvent controls."}, "[1]": {"tested_on": "LPS-stimulated 3T3-L1 adipocytes", "assay": "IL-6 secretion in LPS/3T3-L1 adipocytes", "format": "cell-based, murine", "details": "at the concentration of maximum inhibition, 100 ng LPS/ml; for IL-6 Index: indexed to LPS control"}, "[2]": {"tested_on": "LPS-treated 3T3-L1 adipocytes", "assay": "Adiponectin secretion in LPS/3T3-L1 adipocytes", "format": "cell-based, murine", "details": "for Maximum adiponectin stimulation / concentration of maximum adiponectin stimulation: 100 ng/ml LPS"}, "[3]": {"assay": "Non-fasting serum glucose in db/db diabetic mice", "format": "in vivo", "experimental": "The Model—Male, C57BLKS/J m^+/m^+ Lepr^db (db/db) mice were used to assess the potential of the test materials to reduce fasting serum glucose or insulin concentrations. This strain of mice is resistant to leptin by virtue of the absence of a functioning leptin receptor.\nTesting Procedure—Test substances were administered daily by gavage in 0.2% Tween-80. Serum was collected from the retroorbital sinus before the initial dose and ninety minutes after the third and final dose. Non-fasting serum glucose was determined enzymatically by the mutarotase/glucose oxidase method and serum insulin was determined by a mouse specific ELISA.\nTesting Procedure—Test substances were administered daily by gavage in 0.2% Tween-80. Serum was collected from the retroorbital sinus before the initial dose and ninety minutes after the fifth and final dose. Non-fasting serum glucose was determined enzymatically by the mutarotase/glucose oxidase method and serum insulin was determined by a mouse specific ELISA."}, "[4]": {"tested_on": "TNFα-treated 3T3-L1 adipocytes", "assay": "Adiponectin secretion from TNFα-treated 3T3-L1 adipocytes", "format": "cell-based, murine", "details": "for maximum increase of adiponectin secretion from TNFα control: 10 ng/ml TNFα", "experimental": "For two days, the cells were allowed grow to reach confluence. […] (3) 0.5 μM dexamethasone and (4) 10 μg/ml insulin (MDI medium). […] Adiponectin Assay—The adiponectin secreted into the medium was quantified using the Mouse Adiponectin Quantikine® Immunoassay kit with no modifications (R&D Systems, Minneapolis, Minn.). […] Statistical Calculations and Interpretation—All assays were preformed in duplicate. […] Differences among the doses and test agents were determined using the Student's t-test without correction for multiple comparisons; the nominal five percent probability of a type I error was selected."}, "PGE2 biosynthesis": {"tested_on": "PGE2 biosynthesis", "assay": "PGE2 biosynthesis in A549 cells stimulated by mite dust allergen", "format": "cell-based, human", "details": "10 μg/ml", "excerpt": "Mite dust allergen isolation—Dermatophagoides farinae is the American house dust mite. D. farinae were raised on a 1:1 ratio of Purina Laboratory Chow (Ralston Purina, Co, St. Louis, Mo.) and Fleischmann's granulated dry yeast (Standard Brands, Inc. New York, N.Y.) at room temperature and 75% humidity. Live mites were aspirated from the culture container as they migrated from the medium, killed by freezing, desiccated and stored at 0% humidity. The allergenic component of the mite dust was extracted with water at ambient temperature. Five-hundred mg of mite powder were added to 5 ml of water (1:10 w/v) in a 15 ml conical centrifuge tube (VWR, Rochester, N.Y.), shaken for one minute and allowed to stand overnight at ambient temperature. The next day, the aqueous phase was filtered using a 0.2 μm disposable syringe filter (Nalgene, Rochester, N.Y.). The filtrate was termed mite dust allergen and used to test for induction of PGE2 biosynthesis in A549 pulmonary epithelial cells.\nCell culture and treatment—The human airway epithelial cell line, A549 (American Type Culture Collection, Bethesda, Md.) was cultured and treated as previously described in Example 6. Mite allergen was added to the culture medium to achieve a final concentration of 1000 ng/ml. Eighteen hours later, the media were sampled for PGE2 determination."}, "[5]": {"tested_on": "insulin-resistant 3T3-L1 adipocytes", "assay": "Adiponectin secretion from insulin-resistant 3T3-L1 adipocytes", "format": "cell-based, murine", "details": "50.0 μg/ml, ratio of the indices (Table 21)", "experimental": "3T3-L1 cells were seeded at an initial density of 1×10^4 cells/cm^2 in 96-well plates. For two days, the cells were allowed grow to reach confluence. Following confluence, the cells were forced to differentiate into adipocytes by the addition of differentiation medium; this medium consisted of (1) 10% FBS/DMEM (high glucose); (2) 0.5 mM methylisobutylxanthine; (3) 0.5 μM dexamethasone and (4) 10 μg/ml insulin (MDI medium). From Day 3 through Day 5, the medium was changed to post-differentiation medium consisting of 10 μg/ml insulin in 10% FBS/DMEM.\nBriefly, on Day 6, cells were maintained in serum-free media containing 0.5% bovine serum albumin (BSA) for three hours and then treated with 1 μg insulin/ml plus solvent or insulin plus test material. […] Twenty-four hours later, the supernatant medium was sampled for adiponectin determination.\nAdiponectin Assay—The adiponectin secreted into the medium was quantified using the Mouse Adiponectin Quantikine® Immunoassay kit with no modifications (R&D Systems, Minneapolis, Minn.).\nSubstituting {relative adiponectin secretion/[concentration]} for the independent variable v/[S] and {relative adiponectin secretion} for the dependant variable {v}, produced a relationship of the form y=mx+b. […]"}, "[6]": {"assay": "Serum cytokine (IL-6, TNF-α) analysis, collagen induced arthritis", "format": "in vivo, DBA/J mice", "details": "10 mg/kg", "experimental": "Cytokine analysis—Serum was collected from the mice at the termination of the experiment for cytokine analysis. The volume of sample being low (˜0.2-0.3 ml/mouse), samples from the ten mice were randomly allocated into two pools of five animals each. This was done so to permit repeat analyses; each analysis was performed a minimum of two times. TNF-α and IL-6 were analyzed using mouse specific reagents (R&D Systems, Minneapolis, Minn.) according to the manufacturer's instructions."}, "[7]": {"details": "at the concentration of maximum stimulation"}}, "note": "Marks after values point to notes of the source that are not given here.", "data": [{"compound": "COc1ccc2c(c1)c(CC(=O)O)c(C)n2C(=O)c1ccc(Cl)cc1", "note": "[Indomethacin, indomethacin]", "values": [{"measurement": "adipogenic / lipogenic response", "setting": "3T3-L1 adipocytes", "value": "induced lipogenesis"}, {"measurement": "% Inhibition of IL-6 secretion (maximum)", "setting": "[1]", "value": "53* %"}, {"measurement": "Maximum adiponectin stimulation", "setting": "[2]", "value": 9, "unit": "%"}, {"measurement": "% Stimulation of adiponectin secretion (maximum)", "setting": "[2]; [7]", "value": 9, "unit": "%"}]}, {"compound": "CN(C)C(=N)N=C(N)N", "note": "[metformin, reference compound]", "values": [{"measurement": "lipogenic index (triglyceride content relative to solvent control)", "setting": "3T3-L1 adipocytes; Oil Red O, 50 μg/ml", "value": 0.79}, {"measurement": "serum glucose relative to controls", "setting": "[3]; three consecutive days", "value": "decreased"}]}, {"compound": "Cc1c(C)c2c(c(C)c1O)CCC(C)(COc1ccc(CC3SC(=O)NC3=O)cc1)O2", "note": "(centres unmarked) [Troglitazone, troglitazone]", "values": [{"measurement": "maximum increase of adiponectin secretion from TNFα control", "setting": "[4]", "value": 51, "unit": "%"}, {"measurement": "concentration of maximum adiponectin stimulation", "setting": "[2]", "value": 0.625, "unit": "µg/mL"}, {"measurement": "% Stimulation of adiponectin secretion (maximum)", "setting": "[2]; [7]", "value": 15, "unit": "%"}]}, {"compound": "Beta acids", "values": [{"measurement": "Percent PGE2 Inhibition", "setting": "PGE2 biosynthesis", "value": 83, "unit": "%"}, {"measurement": "adipogenic / lipogenic response", "setting": "3T3-L1 adipocytes", "value": "comparable to indomethacin and troglitazone"}]}, {"compound": "CC(=O)Oc1ccccc1C(=O)O", "note": "[Aspirin, aspirin]", "values": [{"measurement": "Maximum adiponectin stimulation", "setting": "[2]", "value": "failed to induce adiponectin secretion"}]}, {"compound": "CCc1ccc(CCOc2ccc(CC3SC(=O)NC3=O)cc2)nc1", "note": "(centres unmarked) [Pioglitazone, pioglitazone]", "values": [{"measurement": "maximum increase of adiponectin secretion from TNFα control", "setting": "[4]", "value": 80, "unit": "%"}, {"measurement": "Adiponectin Index Observed", "setting": "[4]; 1.0 μg/ml (Table 26)", "value": 1.80}, {"measurement": "IL-6 Index", "setting": "[1]", "value": "0.37*"}, {"measurement": "concentration of maximum adiponectin stimulation", "setting": "[2]", "value": 1.25, "unit": "µg/mL"}, {"measurement": "% Stimulation of adiponectin secretion (maximum)", "setting": "[2]; [7]", "value": 12, "unit": "%"}]}, {"compound": "O=C(O)c1ccccc1O", "note": "[salicylic acid]", "values": [{"measurement": "IL-6 Index", "setting": "[1]", "value": "0.52*"}, {"measurement": "Maximum adiponectin stimulation", "setting": "[2]", "value": "failed to induce adiponectin secretion"}, {"measurement": "Adiponectin Index", "setting": "[2]; at the concentration of maximum stimulation, indexed to LPS control", "value": 0.96}]}, {"compound": "CC(C)CCC1=C(O)C(C(=O)C(C)C)=C(O)C(CCC(C)C)(CCC(C)C)C1=O", "note": "[Hexahydro colupulone, hexahydrocolupulone]", "values": [{"measurement": "adipogenic / lipogenic response", "setting": "3T3-L1 adipocytes", "value": "failed to elicit a lipogenic response greater than the solvent controls"}]}, {"compound": "CC(C)CCC1=C(O)C(C(=O)C(C)C)=C(O)C(CCC(C)C)(CCC(C)C)C1=O", "note": "[Hexahydrocolupulone (HHCL)]", "values": [{"measurement": "Adiponectin/IL-6", "setting": "[5]", "value": "0.60#"}]}, {"compound": "CC(C)Cc1ccc(C(C)C(=O)O)cc1", "note": "(centres unmarked) [ibuprofen]", "values": [{"measurement": "concentration of maximum adiponectin stimulation", "setting": "[2]", "value": 0.625, "unit": "µg/mL"}, {"measurement": "% Stimulation of adiponectin secretion (maximum)", "setting": "[2]; [7]", "value": 22, "unit": "%"}]}, {"compound": "C[C@]12C=CC(=O)C=C1CC[C@@H]1[C@@H]2[C@@H](O)C[C@@]2(C)[C@H]1CC[C@]2(O)C(=O)CO", "note": "[prednisolone]", "values": [{"measurement": "reduction of serum IL-6 levels", "setting": "[6]", "value": "reached a statistical significance"}]}, {"compound": "CN(CCOc1ccc(CC2SC(=O)NC2=O)cc1)c1ccccn1", "note": "(centres unmarked) [rosiglitazone]", "values": [{"measurement": "Glucose [% Pretreatment]", "setting": "[3]; 1.0 mg/kg-day by gavage, three days, db/db mice, non-fasting serum", "value": "83.0# % Pretreatment"}]}]}
